# Assay results as given in patent EP4227307A1 (Genzyme Corporation, priority 2022, dated 2023).
# Counter-ions that a name gives are not always drawn.
# Biological target: T1, human recombinant 6His-Nterm SHP2 full-length (Thr2-Arg593) (Homo sapiens, UniProt Q06124)
# T1 construct: 6His-Nterm SHP2 full-length (Thr2-Arg593, R&D system); 6His (N); purchased R&D system
# T1 sequence (Q06124 2-593): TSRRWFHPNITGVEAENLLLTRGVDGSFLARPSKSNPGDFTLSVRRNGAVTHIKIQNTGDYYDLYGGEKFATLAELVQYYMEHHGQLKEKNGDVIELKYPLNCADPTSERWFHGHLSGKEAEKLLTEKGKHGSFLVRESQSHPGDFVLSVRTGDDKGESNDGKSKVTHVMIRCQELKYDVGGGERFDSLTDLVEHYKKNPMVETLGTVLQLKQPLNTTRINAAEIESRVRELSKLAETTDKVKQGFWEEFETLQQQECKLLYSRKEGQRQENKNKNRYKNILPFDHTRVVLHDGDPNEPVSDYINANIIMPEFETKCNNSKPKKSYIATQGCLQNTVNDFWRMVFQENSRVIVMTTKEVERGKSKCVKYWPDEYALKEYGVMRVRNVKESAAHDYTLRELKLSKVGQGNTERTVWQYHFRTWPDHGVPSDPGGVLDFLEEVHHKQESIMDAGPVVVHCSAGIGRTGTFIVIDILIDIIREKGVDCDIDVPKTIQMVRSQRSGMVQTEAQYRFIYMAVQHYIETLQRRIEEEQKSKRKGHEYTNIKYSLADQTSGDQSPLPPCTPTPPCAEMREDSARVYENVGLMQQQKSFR
# Test: SHP2 Phosphatase Assay (DiFMUP fluorescence)
# Assay type: biochemical
# Details: SHP2 0.2 nM pre-incubated with 100 nM bi-phosphorylated activating peptide; compound 1000-0.05 nM, 30 min pre-incubation; DiFMUP 20 µM, 45 min, room temperature; 10-concentration dose-response
# Summary of the method: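 SHP2 (0.2 nM) preactivated ≥10 min with 100 nM bis-phosphorylated peptide, then 30 min with compound (10 concentrations, 1000–0.05 nM) at room temperature, pH 7.2 HEPES buffer with DTT. DiFMUP (20 µM, added solution) reacted 45 min, pervanadate-stopped; fluorescence 350/450 nm. IC50 by 4-parameter logistic fit.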
row,Structure (SMILES),IC50 [µM]
1,"Cc1nc2c(s1)[C@@H](N)C1(CCN(c3nc(C)c(-c4ccccc4F)n4nccc34)CC1)C2 [Compound 83, (6S)-1'-[7-(2-fluorophenyl)-6-methyl-pyrazolo[1,5-a]pyrazin-4-yl]-2-methyl-spiro[4,6-dihydrocyclopenta[d]thiazole-5,4'-piperidine]-6-amine hydrochloride]",0.01
2,"Cc1nccc(-c2cnc(N3CCC4(CC3)Cc3ncccc3[C@H]4N)c3ccnn23)c1Cl [Compound 86, (5S)-1'-[7-(3-chloro-2-methyl-4-pyridyl)pyrazolo[1,5-a]pyrazin-4-yl]spiro[5,7-dihydrocyclopenta[b]pyridine-6,4'-piperidine]-5-amine hydrochloride]",0.06
3,"Cc1nc2c(s1)[C@@H](N)C1(CCN(c3nc(C)c(-c4cnn(C)c4C)n4nccc34)CC1)C2 [Compound 82, (6S)-1'-[7-(1,5-dimethylpyrazol-4-yl)-6-methyl-pyrazolo[1,5-a]pyrazin-4-yl]-2-methyl-spiro[4,6-dihydrocyclopenta[d]thiazole-5,4'-piperidine] -6-amine hydrochloride]",0.027
4,"COc1nc2c(s1)[C@@H](N)C1(CCN(c3nc(C)c(-c4cnn(C)c4C)n4nccc34)CC1)C2 [Compound 220, (6S)-1'-[7-(1,5-Dimethylpyrazol-4-yl)-6-methyl-pyrazolo[1,5-a]pyrazin-4-yl]-2-methoxy-spiro[4,6-dihydrocyclopenta[d]thiazole-5,4'-piperidine]-6-amine]",0.026
5,"Cc1nc(N2CCC3(CC2)Cc2ncccc2[C@H]3N)c2ccnn2c1-c1ccnc(C(F)(F)F)c1 [Compound 49, (5S)-1'-[6-methyl-7-[2-(trifluoromethyl)-4-pyridyl]pyrazolo[1,5-a]pyrazin-4-yl]spiro[5,7-dihydrocyclopenta[b]pyridine-6,4'-piperidine]-5-amine]",0.13
6,"COc1cnc2c(c1)[C@@H](N)C1(CCN(c3nc(C)c(-c4cccc(F)c4F)n4nccc34)CC1)C2 [Compound 24, (5S)-1'-[7-(2,3-difluorophenyl)-6-methyl-pyrazolo[1,5-a]pyrazin-4-yl]-3-methoxy-spiro[5,7-dihydrocyclopenta[b]pyridine-6,4'-piperidine]-5-amine]",0.011
7,"Cc1nc(N2CCC3(CC2)Cc2ncccc2[C@H]3N)c2ccnn2c1-c1ccc2nccnc2c1F [Compound 78, (5S)-1'-[7-(5-fluoroquinoxalin-6-yl)-6-methyl-pyrazolo[1,5-a]pyrazin-4-yl]spiro [5,7-dihydrocyclopenta[b]pyridine-6,4'-piperidine] -5-amine hydrochloride]",0.012
8,"Cc1nc(N2CCC3(CC2)Cc2ncsc2[C@H]3N)c2ccnn2c1-c1ccccc1 [Compound 74, (6S)-1'-(6-methyl-7-phenyl-pyrazolo [1,5-a]pyrazin-4-yl)spiro[4,6-dihydrocyclopenta[d]thiazole-5,4'-piperidine] -6-amine hydrochloride]",0.005
9,"Cc1cc(-c2c(C)nc(N3CCC4(CC3)Cc3ncccc3[C@H]4N)c3ccnn23)n(C)n1 [Compound 44, (5S)-1'-[7-(2,5-dimethylpyrazol-3-yl)-6-methyl-pyrazolo[1,5-a]pyrazin-4-yl]spiro[5,7-dihydrocyclopenta[b]pyridine-6,4'-piperidine]-5-amine]",0.015
10,"COc1ccc2c(c1)[C@@H](N)C1(CCN(c3nc(C)c(-c4cnn(C)c4Cl)n4nccc34)CC1)C2 [Compound 126, (1S)-1'-[7-(5-chloro-1-methyl-pyrazol-4-yl)-6-methyl-pyrazolo[1,5-a]pyrazin-4-yl] -6-methoxy-spiro[indane-2,4'-piperidine]-1-amine hydrochloride]",0.004
11,"Cc1nc(N2CCC3(CC2)Cc2c(F)cccc2[C@H]3N)c2ccnn2c1-c1ccccc1F [Compound 93, (1S)-4-fluoro-1'-[7-(2-fluorophenyl)-6-methyl-pyrazolo[1,5-a]pyrazin-4-yl]spiro[indane-2,4'-piperidine]-1-amine hydrochloride]",0.046
12,"Cc1nc(N2CCC3(CC2)Oc2ccccc2[C@H]3N)c2ccnn2c1-c1ccc(F)c2cc[nH]c12 [Compound 18, (3R)-1'-[7-(4-fluoro-1H-indol-7-yl)-6-methyl-pyrazolo[1,5-a]pyrazin-4-yl] spiro [3H-benzofuran-2,4'-piperidine] -3 - amine]",0.132
13,"Cc1cc(-c2c(C)nc(N3CCC4(CC3)Cc3ncccc3[C@H]4N)c3ccnn23)cnn1 [Compound 124, (5S)-1'-[6-methyl-7-(6-methylpyridazin-4-yl)pyrazolo[1,5-a]pyrazin-4-yl]spiro[5,7-dihydrocyclopenta[b]pyridine-6,4'-piperidine]-5-amine hydrochloride]",0.391
14,"Cc1nc(N2CCC3(CC2)Oc2ncccc2[C@H]3N)c2ccnn2c1-c1cccc(F)c1Cl [Compound 14, (3R)-1'-[7-(2-chloro-3-fluorophenyl)-6-methyl-pyrazolo [1 ,5-a]pyrazin-4-yl]spiro[3H-furo[2,3-b]pyridine-2,4'-piperidine]-3-amine]",0.04
15,"COc1nccc(-c2c(C)nc(N3CCC4(CC3)Cc3ncccc3[C@H]4N)c3ccnn23)c1Cl [Compound 108, (5S)-1'-[7-(3-chloro-2-methoxy-4-pyridyl)-6-methyl-pyrazolo[1,5-a]pyrazin-4-yl]spiro[5,7-dihydrocyclopenta[b]pyridine-6,4'-piperidine]-5-amine]",0.006
16,"Cc1nc(N2CCC3(CC2)Cc2ncccc2[C@H]3N)c2ccnn2c1-c1ccncc1 [Compound 70, (5S)-1'-[6-methyl-7-(4-pyridyl)pyrazolo[1,5-a]pyrazin-4-yl]spiro[5,7-dihydrocyclopenta[b]pyridine-6,4'-piperidine]-5-amine hydrochloride]",0.073

# The remaining lines, values ahead:
row,IC50 [µM],Structure (SMILES)
1,0.145,"Cc1cnccc1-c1c(C)nc(N2CCC3(CC2)Cc2ncccc2[C@H]3N)c2ccnn12 [Compound 98, (5S)-1'-[6-methyl-7-(3-methyl-4-pyridyl)pyrazolo[1,5-a]pyrazin-4-yl]spiro [5,7-dihydrocyclopenta[b]pyridine-6,4'-piperidine] -5-amine formate]"
2,0.006,"Cc1nc(N2CCC3(CC2)Cc2ncccc2[C@H]3N)c2ccnn2c1-c1cccc(F)c1Cl [Compound 2, (5S)-1'-(7-(2-chloro-3-fluorophenyl)-6-methylpyrazolo[1,5-a]pyrazin-4-yl)-5,7-dihydrospiro[cyclopenta[b]pyridine-6,4'-piperidin]-5-amine]"
3,0.021,"Cc1nc(N2CCC3(CC2)Cc2ncc(C#N)cc2[C@H]3N)c2ccnn2c1-c1ccccc1F [Compound 209, (5S)-5-amino-1'-[7-(2-fluorophenyl)-6-methyl-pyrazolo[1,5-a]pyrazin-4-yl]spiro[5,7-dihydrocyclopenta[b]pyridine-6,4'-piperidine]-3-carbonitrile]"
4,0.009,"Cc1nccc(-c2c(C)nc(N3CCC4(CC3)Cc3ccccc3[C@H]4N)c3ccnn23)c1F [Compound 151, (1S)-1'-[7-(3-fluoro-2-methyl-4-pyridyl)-6-methyl-pyrazolo [1 ,5-a]pyrazin-4-yl]spiro[indane-2,4'-piperidine]-1-amine]"
5,0.012,"COc1cc2c(cn1)[C@@H](N)C1(CCN(c3nc(C)c(-c4ccccc4F)n4nccc34)CC1)C2 [Compound 122, (7S)-1''-[7-(2-fluorophenyl)-6-methyl-pyrazolo[1,5-a]pyrazin-4-yl] -3-methoxy-spiro [5,7-dihydrocyclopenta[c]pyridine-6,4'-piperidine]-7-amine]"
6,0.086,"Cc1nc(N2CCC3(CC2)Cc2ncccc2[C@H]3N)c2ccnn2c1-c1ccn(C)c(=O)c1F [Compound 228, 4-[4-[(5S)-5-aminospiro[5,7-dihydrocyclopenta[b]pyridine-6,4'-piperidine]-1'-yl]-6-methyl-pyrazolo[1,5-a]pyrazin-7-yl]-3-fluoro-1-methyl-pyridin-2-one]"
7,0.853,"Cc1nc(N2CCC3(CC2)Cc2ncccc2[C@@H]3N)c2ccnn2c1-c1ccccc1 [Compound 141, (5R)-1'-(6-methyl-7-phenyl-pyrazolo[1,5-a]pyrazin-4-yl)spiro[5,7-dihydrocyclopenta[b]pyridine-6,4'-piperidine]-5-amine]"
8,0.011,"Cc1nc(N2CCC3(CC2)Cc2ncccc2[C@H]3N)c2ccnn2c1-c1c(F)cccc1F [Compound 115, (5S)-1'-[7-(2,6-difluorophenyl)-6-methyl-pyrazolo[1,5-a]pyrazin-4-yl]spiro[5,7-dihydrocyclopenta[b]pyridine-6,4'-piperidine]-5-amine]"
9,0.058,"Cc1nocc1-c1c(C)nc(N2CCC3(CC2)Cc2ccccc2[C@H]3N)c2ccnn12 [Compound 21, (1S)-1'-[6-methyl-7-(3-methylisoxazol-4-yl)pyrazolo[1,5-a]pyrazin-4-yl]spiro[indane-2,4'-piperidine]-1-amine]"
